Measurements: patent publication US10856562B2, “Flavor composition and edible compositions containing same” (MARS, INCORPORATED, priority 2013, dated 2020)
Entries after “also recorded” stand apart in the source; their conditions may differ. Square brackets hold non-standard residues; d marks the D form. Ends that are not written are not given here. pGlu = O=C1CC[C@@H](C(=O)O)N1

Columns and labels:
Format in all cases: in vivo, human
panelists [1] = assay: Descriptive profile (Spectrum method) of peptide in 0.2% NaCl solution, in-mouth; conditions: for Astringent, in-mouth perception / Bitter, in-mouth perception / Flinty/Mineral, in-mouth perception / Metallic, in-mouth perception / Numbing, in-mouth perception / Salt, in-mouth perception (mean salt perception in-mouth) / Sour, in-mouth perception / Sweet, in-mouth perception: mean score, 15-point scale
Description: Descriptive Profiles (Flavor and Chemical Feeling Factors) of five use levels of a pGlu-Val-Leu flavor composition were determined using the Spectrum™ method. The five use levels were as follows: 0.1 ppb, 0.5 ppb, 1.0 ppb, 10.0 ppb and 40.0 ppb.
Data was collected for the flavor and chemical feeling factors of the product in-mouth for each of the five use levels according to the following protocol. One replication was collected for the flavor and chemical feeling factors of the product in-mouth. 6-9 panelists evaluated per session.
2. Each panelist tasted a test sample (0.1 ppb, 0.5 ppb, 1.0 ppb, 10.0 ppb or 40.0 ppb all in 0.2% NaCl solution). Only one sample was tasted per session.
Descriptive attributes (e.g., taste, flavor and chemical feeling factors) of six use levels of pGlu-Val-Leu (SE-13), pGlu-Val (SE-14) and pGlu-Val-Val (SE-17) flavor composition peptides were determined. The six use levels were as follows: 0.1 ppb, 0.5 ppb, 1.0 ppb, 10.0 ppb, 40.0 ppb and 50.0 ppb.
Data was collected for the attributes of the product in-mouth for the use levels according to the following protocol: • The samples were analyzed for flavor and aftertaste by six-nine members of a panel, trained and experienced in appearance, flavor and texture evaluation using the Spectrum™ method. Samples in solution were evaluated across multiple panel sessions. • The strength of each attribute was rated on a 15-point scale, where 0=none and 15=very strong. • This scale incorporates the ability to use tenths of a point and therefore has the potential of 150 scale differentiations. • The scale may be expanded beyond 15 points to include extreme ratings if necessary.
(§1) Attribute Perception Protocol • The panelists evaluated each sample using the following procedure • Descriptive Profiles (flavor and chemical feeling factors) of 5 levels of salt enhancing solutions • Individual data was collected for the flavor and chemical feeling factors of the product in-mouth • Increased Salt Perception Protocol • Each panelist tasted salt 5 reference (0.35% salt solution)—to ground themselves on salt intensity of 5.0. • Each panelist tasted the test sample (0.1 ppb, 0.5 ppb, 1.0 ppb, 10.0 ppb or 40.0/50.0 ppb all in 0.2% NaCl solution: only one per session) • Each panelist then re-tasted the salt 5 reference and rated it for salt intensity as well as any other basic taste, chemical feeling factor, or aromatic perceived. This captured any increased salt perception indicated by the test sample as well as any other perceptions present. • Return to Baseline Protocol • After evaluating the sample for salt & other perceptions, panelists re-tasted the salt 5 reference at 1 minute intervals until their perception of the salt 5 saltiness intensity had returned to 5.0. Each panelist recorded their salt intensity at each interval and took qualitative notes on other perceptions seen in aftertaste. Sample Preparation
The 0.1, 0.5, 1.0 10, 40, and 50 ppb test samples of the flavor composition peptides were prepared in water as described in table 4.
The panelists evaluated each sample for the attributes described in table 5.

panelists [2] = assay: Return to baseline protocol: salt reference re-tasted at 1 minute intervals
Description: as §1, with “After evaluating the sample for salt and other perceptions (step 3 above), each panelist re-tasted the salt reference (5.0 intensity) at 1 minute intervals until their perception of the saltiness intensity of the reference returned to 5.0. Each panelist recorded salt intensity at each interval and took qualitative notes on other perceptions seen in aftertaste. Attribute” for “Attribute”

panel of trained tasters = assay: Saltiness of sodium-reduced pasta sauce with peptides, panel of trained tasters; conditions: 10 ppb of UE-30
Description: Food product compositions were prepared by admixing flavor composition peptide(s) of the present application with food compositions, wherein the level of sodium (NaCl) in the food product compositions was reduced. The level of sodium was reduced by 25%, 50% or 75% compared to food products compositions that were not admixed with flavor composition peptides. The food product compositions comprising the flavor composition peptides were tasted by a panel of trained tasters and the level of saltiness was compared to the control food products.
The peptides pGlu-Val-Leu (identified as “SE-13”), pGlu-Val-Cys (identified as “UE-30”) and pGlu-Val-Val (identified as “SE-17”) were tested in Pasta Sauce. The control pasta sauce comprised 540 mg sodium (NaCl) in a 125 g serving.

[pGlu]-Val [SE-14]
Astringent, in-mouth perception (panelists [1]; 0.1 ppb in 0.2% NaCl): 0.0 | Bitter, in-mouth perception (panelists [1]; 0.1 ppb in 0.2% NaCl): 0.0 | Flinty/Mineral, in-mouth perception (panelists [1]; 0.1 ppb in 0.2% NaCl): 0.8 | Metallic, in-mouth perception (panelists [1]; 0.1 ppb in 0.2% NaCl): 0.3 | Numbing, in-mouth perception (panelists [1]; 0.1 ppb in 0.2% NaCl): 0.0 | Salt, in-mouth perception (mean salt perception in-mouth) (panelists [1]; 0.1 ppb in 0.2% NaCl): 1.8 | Sour, in-mouth perception (panelists [1]; 0.1 ppb in 0.2% NaCl): 0.0 | Sweet, in-mouth perception (panelists [1]; 0.1 ppb in 0.2% NaCl): 0.0 | Level of the aromatics, basic tastes and chemical feeling factors in-mouth with increasing concentration (panelists [1]; 0.1 to 40.0/50.0 ppb): does not increase | Salt perception in-mouth as the concentration increases (panelists [1]; 0.1 to 40.0/50.0 ppb in 0.2% NaCl): increases slightly; also recorded: slight increase | Astringent, in-mouth perception (panelists [1]; 0.5 ppb in 0.2% NaCl): 0.1 | Bitter, in-mouth perception (panelists [1]; 0.5 ppb in 0.2% NaCl): 0.0 | Flinty/Mineral, in-mouth perception (panelists [1]; 0.5 ppb in 0.2% NaCl): 0.6 | Metallic, in-mouth perception (panelists [1]; 0.5 ppb in 0.2% NaCl): 0.1 | Numbing, in-mouth perception (panelists [1]; 0.5 ppb in 0.2% NaCl): 0.0 | Salt, in-mouth perception (mean salt perception in-mouth) (panelists [1]; 0.5 ppb in 0.2% NaCl): 2.5 | Sour, in-mouth perception (panelists [1]; 0.5 ppb in 0.2% NaCl): 0.0 | Sweet, in-mouth perception (panelists [1]; 0.5 ppb in 0.2% NaCl): 0.0 | Astringent, in-mouth perception (panelists [1]; 1.0 ppb in 0.2% NaCl): 0.1 | Bitter, in-mouth perception (panelists [1]; 1.0 ppb in 0.2% NaCl): 0.0 | Flinty/Mineral, in-mouth perception (panelists [1]; 1.0 ppb in 0.2% NaCl): 0.9 | Metallic, in-mouth perception (panelists [1]; 1.0 ppb in 0.2% NaCl): 0.1 | Numbing, in-mouth perception (panelists [1]; 1.0 ppb in 0.2% NaCl): 0.0 | Salt, in-mouth perception (mean salt perception in-mouth) (panelists [1]; 1.0 ppb in 0.2% NaCl): 2.9 | Sour, in-mouth perception (panelists [1]; 1.0 ppb in 0.2% NaCl): 0.0 | Sweet, in-mouth perception (panelists [1]; 1.0 ppb in 0.2% NaCl): 0.0 | Astringent, in-mouth perception (panelists [1]; 10.0 ppb in 0.2% NaCl): 0.0 | Bitter, in-mouth perception (panelists [1]; 10.0 ppb in 0.2% NaCl): 0.0 | Flinty/Mineral, in-mouth perception (panelists [1]; 10.0 ppb in 0.2% NaCl): 0.9 | Metallic, in-mouth perception (panelists [1]; 10.0 ppb in 0.2% NaCl): 0.3 | Numbing, in-mouth perception (panelists [1]; 10.0 ppb in 0.2% NaCl): 0.0 | Salt, in-mouth perception (mean salt perception in-mouth) (panelists [1]; 10.0 ppb in 0.2% NaCl): 3.3 | Sour, in-mouth perception (panelists [1]; 10.0 ppb in 0.2% NaCl): 0.0 | Sweet, in-mouth perception (panelists [1]; 10.0 ppb in 0.2% NaCl): 0.0 | Astringent, in-mouth perception (panelists [1]; 50.0 ppb in 0.2% NaCl): 0.0 | Bitter, in-mouth perception (panelists [1]; 50.0 ppb in 0.2% NaCl): 0.0 | Flinty/Mineral, in-mouth perception (panelists [1]; 50.0 ppb in 0.2% NaCl): 0.7 | Metallic, in-mouth perception (panelists [1]; 50.0 ppb in 0.2% NaCl): 0.2 | Numbing, in-mouth perception (panelists [1]; 50.0 ppb in 0.2% NaCl): 0.0 | Salt, in-mouth perception (mean salt perception in-mouth) (panelists [1]; 50.0 ppb in 0.2% NaCl): 3.2 | Sour, in-mouth perception (panelists [1]; 50.0 ppb in 0.2% NaCl): 0.0 | Sweet, in-mouth perception (panelists [1]; 50.0 ppb in 0.2% NaCl): 0.0 | Umami like swelling of lips and tongue, in-mouth (panelists [1]; all levels): Some panelists also experience Umami like swelling of lips and tongue | Umami like feeling factor of lip and tongue swelling (panelists [1]; both in-mouth and after expectoration): Shows umami like feeling factor of lip and tongue swelling | Mean time needed to return to baseline (panelists [2]; 0.1 ppb in 0.2% NaCl): 4.6 min | Mean time needed to return to baseline (min.) (panelists [2]; 0.1 ppb in 0.2% NaCl): 4.6 min | Time needed to return to baseline as the concentration increases (panelists [2]; 0.1 to 40.0/50.0 ppb): increases slightly overall; also recorded: slight increase overall | Mean time needed to return to baseline (panelists [2]; 0.5 ppb in 0.2% NaCl): 4.6 min | Mean time needed to return to baseline (min.) (panelists [2]; 0.5 ppb in 0.2% NaCl): 4.6 min | Mean time needed to return to baseline (panelists [2]; 1.0 ppb in 0.2% NaCl): 3.9 min | Mean time needed to return to baseline (min.) (panelists [2]; 1.0 ppb in 0.2% NaCl): 3.9 min | Mean time needed to return to baseline (panelists [2]; 10.0 ppb in 0.2% NaCl): 5.8 min | Mean time needed to return to baseline (min.) (panelists [2]; 10.0 ppb in 0.2% NaCl): 5.8 min | Mean time needed to return to baseline (panelists [2]; 50.0 ppb in 0.2% NaCl): 6.6 min | Mean time needed to return to baseline (min.) (panelists [2]; 50.0 ppb in 0.2% NaCl): 6.6 min

[pGlu]-Val-Cys [UE-30]
Off-taste (panel of trained tasters): had a metallic taste
